The text below walks through data of patent US20260146044A1, “AROMATIC COMPOUND, PHARMACEUTICAL COMPOSITION CONTAINING SAME, AND USE THEREOF” (Increland, priority 2023, published 2026).

In data set [1] the test system is secretion levels of IL-6 in PBMC cells. Kind of data set: Inhibition of R848-induced IL-6 secretion in PBMC (IL-6 ELISA). In kind it is cell-based. To be noted: human PBMC, 20 h compound pre-incubation, 24 h stimulation. Here is the method: This experiment was carried out in RPMI 1640 medium containing 10% FBS/1% penicillin/streptomycin, with each of the compounds at an initial test concentration of 1 μM. The compound DMSO was dissolved to form a stock solution, which was gradiently diluted 4-fold with the culture medium to a 4× working solution concentration. The diluted solution was added to a 96-well plate with 50 μL per well. PBMC (batch No.: HPP20062307, Sichuan Hope Bio-tech Co., Ltd.) cells were counted, and diluted to a concentration of 2×10^6/mL. The diluted cells were added to the above compound-containing 96-well plate with 150 μL per well, fully mixed, and incubated in an incubator with 5% CO2 at 37° C. for 20 h. Then, R848 was further added until a final concentration of […], and the cells were further incubated in the incubator with 5% CO2 at 37° C. for additional 24 h. Then, after centrifugation at 2,000 rpm for 4 min, the supernatant was diluted 110×, and detected using an IL-6 ELISA kit. An OD450 value was read, and converted to an IL-6 concentration based on a standard curve, to calculate an IC50 value by fitting a dose-effect curve using GraphPad 5.0.
(ELISA stands for enzyme-linked immunosorbent assay.)

The conditions of data set [2]: microsomes.
Description: (§1) Blank incubation plates T60 and NCF60 were preheated for 10 min; liver microsome was diluted to 0.56 mg/mL in 100 mM phosphate buffer, 445 μL of the microsome working solution (0.56 mg/mL) was transferred to the preheated “incubation” plates T60 and NCF60, and then the incubation plates T60 and NCF60 were pre-incubated with continuous shaking at 37° C. for 10 min. 54 μL of the liver microsome was transferred to a blank plate, then 6 μL of a NAPDH cofactor was added to the blank plate, and then 180 μL of a quenching solution was added to the blank plate; 5 µL of a composite working solution (100 μM) was added to each of the microsome-containing incubation plates (T60 and NCF60), and the mixture was thoroughly mixed 3 times; 50 μL of a buffer was added to the NCF60 plate, and the mixture was thoroughly mixed 3 times. Timing was started; the plates were incubated with shaking at 37° C. for 60 min; and 180 μL of a quenching solution and 6 μL of the NAPDH cofactor were added to a quenching plate TO. The plates were ensured to be cooled to prevent evaporation. For the T60 plate, the mixture was thoroughly mixed 3 times, and 54 μL of the mixture was immediately transferred to the quenching plate at the time point of 0 min. Then, 44 μL of the NAPDH cofactor was added to the incubation plate (T60). Timing was started; and the plate was incubated with shaking at 37° C. for 60 min. At 5, 15, 30, 45, and 60 min, 180 μL of the quenching solution was added to the quenching plate, mixed once, and then 60 μL of sample was continuously transferred from the plate T60 to the quenching plate at each time point.
(§2) For NCF60, the mixture was mixed once, and at the time point of 60 min, 60 μL of sample was transferred from the NCF60 incubator to the quenching solution-containing quenching plate. All sampling plates were shaken for 10 min, then centrifuged at 4,000 rpm at 4° C. for 20 min. 80 µL of the supernatant was transferred to 240 μL of HPLC water, and mixed using a plate shaker for 10 min.
The conditions of data set [3]: microsomes. This is another data set of the same source.
Description: as §1, §2
The nature of data set [4]: Metabolic stability in mouse liver microsome. To be noted: liver microsomes.
Description: as §1, §2
Data set [5] in a line: Metabolic stability in human liver microsome. To be noted: liver microsomes. (In general: Microsomes from liver hold many membrane-bound enzymes, among them those of drug oxidation.)
Description: as §1, §2
Data set [6] is described as follows: Pharmacokinetic experiment on SD rats (iv and ig). Format: in vivo. To be noted: Sprague-Dawley, rat, plasma; for Cmax: read-out: Peak plasma concentration Cmax. Here is the method:
Pharmacokinetic experiment on SD rats: in this experiment, two administration modes: oral intragastric administration and tail vein injection were selected. Each of the compounds of the present patented invention was administered at an oral dose of 5 mg/kg at an administration volume of 10 mL/kg. […] Appropriate amounts of Solutol and H2O were proportionally added sequentially, and fully mixed ultrasonically by vortexing, to prepare a clear drug solution at 0.5 mg/mL. ICL004-protodrug was administered by intravenous injection at a dose of 1 mg/kg at an administration volume of 10 mL/kg. Right before use, an appropriate amount of the drug was accurately weighed, to prepare a final volume of 20% PEG 400 and 80% Saline. Appropriate amounts of PEG 400 and Saline were proportionally added sequentially, and fully mixed ultrasonically by vortexing, to prepare a clear drug solution at 0.1 mg/mL.
6 SD rats, each with body weight of 180-220 g, were randomly grouped into 2 groups. After fasting but with free access to water overnight, each […] in the first group was administered by gavage. 200 μL of blood was sampled from its eye socket into an anticoagulant tube respectively at each time point of 15 min, 30 min, 1 h, 2 h, 4 h, 6 h, 8 h, and 24 h after administration. Within one h, each of the blood samples was centrifuged at 10,000 rpm at 4° C. for 20 min (the sample was stored on an ice box prior to the centrifugation), and the supernatant (i.e., the plasma) was stored in a refrigerator at −20° C. for LC-MS/MS analysis. 200 μL of blood was sampled from the eye socket of each […] in the second group into an anticoagulant tube respectively at each time point of 5 min, 15 min, 30 min, 1 h, 2 h, 4 h, 8 h, and 24 h after administration by intravenous injection. Within one h, each of the blood samples was centrifuged at 10,000 rpm at 4° C. for 20 min (the blood sample was stored on an ice box prior to the centrifugation), and the supernatant, i.e., the plasma, was stored in a refrigerator at −20° C. for LC-MS/MS analysis.

Data set [7] in a line: Pharmacokinetic experiment on mice (iv and ig). Format: in vivo. To be noted: mouse, plasma, BALB/c Mice; for Cmax: read-out: Peak plasma concentration Cmax.
For data set [8], the system named is secretion levels of IL-6 in PBMC cells. Kind of data set: Inhibition of LPS+IL-1β-induced IL-6 secretion in PBMC (IL-6 ELISA). Format: cell-based. To be noted: human PBMC, 24 h compound pre-incubation, 20 h stimulation.

As a reminder, the IC50 is the concentration at which inhibition is half-maximal. Low values mean higher potency, high ones lower potency. For the compound `COc1cc2nn([C@H]3CC[C@H](CN4CCC(c5cccc6c5c(C)nn6C5CCC(=O)NC5=O)CC4)CC3)cc2cc1NC(=O)c1cccc(C(F)(F)F)n1` (stereo partly drawn) [TM-25], in data set [1], the IC50 is 28 nM. Besides, the “Mouse liver microsome (t1/2, min)” value in data set [2] came to 128.7 min. In addition, the “Human liver microsome (t1/2, min)” value in data set [3] is given as 117.1 min.

For orientation: half-life means the time in which the quantity being followed falls by half. A higher half-life goes with slow loss. What is called AUC is the area under the concentration-time curve, a measure of exposure. The low end stands for less exposure, the high end for more exposure. The term AUC(0-inf) denotes the area under the concentration-time curve extrapolated to infinity. A higher AUC(0-inf) goes with more exposure. Usually bioavailability stands for dose-corrected exposure relative to a reference, in per cent. For the compound `Cc1nn(C2CCC(=O)NC2=O)c2cccc(N3CCN(C[C@H]4CC[C@H](n5cc6cc(NC(=O)c7cnn8cccnc78)c(N7CCOCC7)cc6n5)CC4)CC3)c12` (stereo partly drawn) [TM-33], the figures for the half-life at 1 µM in data set [4] and in data set [5] were 0.782 h and 1.3 h, respectively. For the same compound, the results for the IC50 in data set [1] and in data set [8] were 13 nM and 10.2 nM, respectively. Also, the exposure (AUC) in data set [6] (iv, 1.00 mg/kg) was determined as 2250 ng·h/mL; in data set [6] (po, ig, 5.00 mg/kg) it was 13800 ng·h/mL; in data set [7] (po, ig, 3.00 mg/kg), 135000 ng·h/mL; in data set [7] (iv, 1.00 mg/kg), 63100 ng·h/mL. Further, the area under the curve AUC(0-inf) in data set [6] (iv, 1.00 mg/kg) was 2300 ng·h/mL; in data set [6] (po, ig, 5.00 mg/kg), 10600 ng·h/mL; in data set [7] (po, ig, 3.00 mg/kg) it was 289000 ng·h/mL; in data set [7] (iv, 1.00 mg/kg) it was 104000 ng·h/mL. Besides, the Cmax in data set [6] (iv, 1.00 mg/kg) amounted to 530 ng/mL; in data set [6] (po, ig, 5.00 mg/kg) it was 1100 ng/mL; in data set [7] (po, ig, 3.00 mg/kg), 12400 ng/mL; in data set [7] (iv, 1.00 mg/kg), 6800 ng/mL. Besides, the bioavailability turned out to be 91.9% in data set [6] (po, ig 5.00 mg/kg vs iv 1.00 mg/kg, read-out: Oral bioavailability Fobs (%)) and 92.1% in data set [7] (po, ig 3.00 mg/kg vs iv 1.00 mg/kg, read-out: Oral bioavailability Fobs (%)).
